Measured values from paper PMC6302903, “Protein and Chemical Determinants of BL-1249 Action and Selectivity for K2P Channels” (ACS Chemical Neuroscience, 2018).

Assays:
Assay type in all cases: cell-based
Conditions in all cases: Xenopus oocytes
TRAAK/EK-1 M4-C = target: T1, TRAAK/EK-1 M4-C (Mus musculus, UniProt O88454+P97438, F242V/L235V/N256D/S249A/T252S/T253M); assay: TEVC of chimera TRAAK/EK-1 M4-C
T1 construct: and Tyr234 K2P4.1(TRAAK); expressed in transfected cells; host or cells: Xenopus laevis oocytes, mRNA injected; chimera built by Gibson assembly

TRAAK/EK-1 M3-C = target: T2, TRAAK/EK-1 M3-C (Mus musculus, UniProt O88454+P97438, A173T/A231F/D223G/E202D/F190V/F242V/G166T/G224S/G226I/H162N/I179F/I208V/K200A/L167K/L171I/L175I/L177I/L182V/L186A/L235V/M195I/N228Y/N256D/P164S/P165Q/P221A/P230D/Q227E/Q233K/S170I/S193K/S197G/S229L/S249A/T187L/T189A/T225D/T252S/T253M/V168I/V174I/V191I/V209I/V214I/Y194H); assay: TEVC of chimera TRAAK/EK-1 M3-C
T2 construct: Trp161 (TRAAK/EK-1 M3-C); expressed in transfected cells; host or cells: Xenopus laevis oocytes, mRNA injected; chimera built by Gibson assembly

TREK-1/AAK M4-C = target: T3, TREK-1/AAK M4-C (Mus musculus, UniProt O88454+P97438); assay: TEVC of chimera TREK-1/AAK M4-C
T3 construct: Y272 (TREK-1/AAK M4-C); expressed in transfected cells; host or cells: Xenopus laevis oocytes, mRNA injected; chimera built by Gibson assembly
T3 sequence (P97438+O88454 with tags, fused parts or gaps P97438:V273L/P97438:V280F/P97438:A287S/P97438:S290T/P97438:M291T/P97438:D294N): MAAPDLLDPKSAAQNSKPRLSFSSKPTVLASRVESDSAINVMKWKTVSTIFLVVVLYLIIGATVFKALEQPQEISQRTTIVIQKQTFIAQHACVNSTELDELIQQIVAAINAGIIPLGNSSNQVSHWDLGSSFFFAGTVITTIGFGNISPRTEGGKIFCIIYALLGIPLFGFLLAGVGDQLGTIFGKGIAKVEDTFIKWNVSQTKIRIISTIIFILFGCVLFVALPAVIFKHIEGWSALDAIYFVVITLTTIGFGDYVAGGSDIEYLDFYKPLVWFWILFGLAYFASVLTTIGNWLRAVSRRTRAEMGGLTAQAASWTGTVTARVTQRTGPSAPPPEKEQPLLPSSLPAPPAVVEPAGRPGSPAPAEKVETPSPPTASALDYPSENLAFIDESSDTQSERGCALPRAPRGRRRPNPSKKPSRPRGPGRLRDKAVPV

TRAAK/EK-1 M2-C = target: T4, TRAAK/EK-1 M2-C (Mus musculus, UniProt O88454+P97438, A151S/D143N/F160Y/H141A/P165L/Q138H/R166H/S147A/S164V/V139S/V154I); assay: TEVC of chimera TRAAK/EK-1 M2-C
T4 construct: Thr114 (TRAAK/EK-1 M2-C); expressed in transfected cells; host or cells: Xenopus laevis oocytes, mRNA injected; chimera built by Gibson assembly
T4 sequence (O88454+P97438 fused with the stated changes): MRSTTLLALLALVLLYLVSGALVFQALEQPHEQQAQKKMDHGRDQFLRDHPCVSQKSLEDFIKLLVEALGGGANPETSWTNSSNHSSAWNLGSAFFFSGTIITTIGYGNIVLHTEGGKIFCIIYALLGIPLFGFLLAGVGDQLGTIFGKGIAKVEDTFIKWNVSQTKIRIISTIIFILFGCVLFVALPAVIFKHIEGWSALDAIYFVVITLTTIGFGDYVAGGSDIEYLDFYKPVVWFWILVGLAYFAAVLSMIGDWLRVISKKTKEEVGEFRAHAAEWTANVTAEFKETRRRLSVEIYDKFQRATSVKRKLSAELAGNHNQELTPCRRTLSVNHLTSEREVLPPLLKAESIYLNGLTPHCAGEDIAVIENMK

T2 sequence (O88454+P97438 fused with the stated changes): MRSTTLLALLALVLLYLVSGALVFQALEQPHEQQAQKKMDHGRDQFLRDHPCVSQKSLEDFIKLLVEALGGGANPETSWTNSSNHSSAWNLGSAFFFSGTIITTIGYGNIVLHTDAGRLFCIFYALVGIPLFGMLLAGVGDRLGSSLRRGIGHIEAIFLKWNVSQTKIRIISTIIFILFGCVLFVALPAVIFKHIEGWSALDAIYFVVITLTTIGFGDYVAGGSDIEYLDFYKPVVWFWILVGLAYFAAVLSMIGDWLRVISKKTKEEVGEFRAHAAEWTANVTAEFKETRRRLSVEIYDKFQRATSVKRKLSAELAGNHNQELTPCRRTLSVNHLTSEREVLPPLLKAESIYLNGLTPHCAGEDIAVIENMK
T1 sequence (O88454+P97438 fused with the stated changes): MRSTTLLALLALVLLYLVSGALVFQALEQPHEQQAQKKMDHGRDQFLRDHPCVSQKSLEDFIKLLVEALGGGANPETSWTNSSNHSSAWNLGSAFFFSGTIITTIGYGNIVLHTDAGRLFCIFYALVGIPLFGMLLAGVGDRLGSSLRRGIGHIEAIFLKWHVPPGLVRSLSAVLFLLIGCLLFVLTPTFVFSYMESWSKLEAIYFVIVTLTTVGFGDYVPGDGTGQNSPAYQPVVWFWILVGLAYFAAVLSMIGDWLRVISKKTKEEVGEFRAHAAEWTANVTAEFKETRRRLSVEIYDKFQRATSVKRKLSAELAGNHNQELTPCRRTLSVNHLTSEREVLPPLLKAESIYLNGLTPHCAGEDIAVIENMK

Structure (SMILES) | EC50 (TRAAK/EK-1 M4-C) | EC50 (TRAAK/EK-1 M3-C) | EC50 (TREK-1/AAK M4-C) | EC50 (TRAAK/EK-1 M2-C)
CS(=O)(=O)Nc1ccc(C(=O)NCc2ccc(Cl)cc2Cl)cc1 [ML335] | > 100 µM | 13 ± 2 µM | 2 ± 0.6 µM | 8 ± 1 µM
c1ccc(-c2nnn[nH]2)c(Nc2cccc3c2CCCC3)c1 [BL-1249, (5,6,7,8-tetrahydro-naphthalen-1-yl)-[2-(1H-tetrazol-5-yl)-phenyl]-amine] | 45 ± 2 µM | 18 ± 2 µM | 19 ± 3 µM | 28 ± 5 µM
